Assay: Aqueous solubility (statements)

**Q.** With “Acinetobacter polyelectrolyte exopolysaccharide [APE]” as the substance, how does the “solubility in aqueous solutions versus pH” value read?
**A.** The value was “soluble throughout the pH range”.

Source: patent publication US8609835B2, “Polysaccharide composition and methods of isolation of the emulsion stabilizing cationic polyelectrolytic polysaccharide” (Trustees Of Tufts College, priority 2008, dated 2013)
